Test results from ChEMBL document CHEMBL2429788, “Chiral linkers to improve selectivity of double-headed neuronal nitric oxide synthase inhibitors” (Bioorg Med Chem Lett, 2013).

Key:
Nitric oxide synthase 3 = target: T1, Nitric oxide synthase 3 (Bos taurus, UniProt P29473)
T1 sequence (P29473 whole entry): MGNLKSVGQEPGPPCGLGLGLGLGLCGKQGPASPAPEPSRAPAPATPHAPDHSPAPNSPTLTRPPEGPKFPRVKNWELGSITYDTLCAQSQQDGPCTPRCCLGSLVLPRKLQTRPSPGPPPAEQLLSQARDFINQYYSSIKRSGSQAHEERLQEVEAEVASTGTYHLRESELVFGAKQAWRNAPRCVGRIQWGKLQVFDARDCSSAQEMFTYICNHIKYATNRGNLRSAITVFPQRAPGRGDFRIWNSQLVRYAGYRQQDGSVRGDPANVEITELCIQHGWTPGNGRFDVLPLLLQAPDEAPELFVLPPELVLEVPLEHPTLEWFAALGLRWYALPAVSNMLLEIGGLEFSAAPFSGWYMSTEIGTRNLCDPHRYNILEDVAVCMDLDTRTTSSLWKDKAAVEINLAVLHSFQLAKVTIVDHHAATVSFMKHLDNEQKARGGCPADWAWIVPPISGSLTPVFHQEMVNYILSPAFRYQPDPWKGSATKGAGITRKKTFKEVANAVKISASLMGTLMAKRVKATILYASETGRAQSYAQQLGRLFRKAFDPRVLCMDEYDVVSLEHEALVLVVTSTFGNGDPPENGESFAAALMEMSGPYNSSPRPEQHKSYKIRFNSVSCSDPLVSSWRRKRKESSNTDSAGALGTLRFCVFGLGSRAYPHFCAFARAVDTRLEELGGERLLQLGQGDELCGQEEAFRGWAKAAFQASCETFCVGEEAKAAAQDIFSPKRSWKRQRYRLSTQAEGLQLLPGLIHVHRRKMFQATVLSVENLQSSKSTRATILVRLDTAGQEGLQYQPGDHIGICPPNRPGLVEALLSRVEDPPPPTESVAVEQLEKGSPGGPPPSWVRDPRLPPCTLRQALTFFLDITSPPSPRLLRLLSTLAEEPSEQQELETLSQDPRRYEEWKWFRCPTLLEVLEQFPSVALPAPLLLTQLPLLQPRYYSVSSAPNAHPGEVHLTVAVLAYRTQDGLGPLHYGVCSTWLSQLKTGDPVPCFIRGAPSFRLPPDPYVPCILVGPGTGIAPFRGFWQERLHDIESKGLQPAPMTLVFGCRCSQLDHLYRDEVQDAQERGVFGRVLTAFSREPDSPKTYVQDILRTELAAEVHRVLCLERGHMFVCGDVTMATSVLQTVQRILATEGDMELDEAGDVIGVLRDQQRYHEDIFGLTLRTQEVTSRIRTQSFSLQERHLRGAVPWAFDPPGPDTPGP
Description: Inhibition of bovine recombinant eNOS expressed in Escherichia coli using L-arginine as substrate up to 180 seconds by hemoglobin capture assay

[1] = target: T2, Nitric oxide synthase, inducible (Mus musculus, UniProt P29477)
T2 sequence (P29477 whole entry): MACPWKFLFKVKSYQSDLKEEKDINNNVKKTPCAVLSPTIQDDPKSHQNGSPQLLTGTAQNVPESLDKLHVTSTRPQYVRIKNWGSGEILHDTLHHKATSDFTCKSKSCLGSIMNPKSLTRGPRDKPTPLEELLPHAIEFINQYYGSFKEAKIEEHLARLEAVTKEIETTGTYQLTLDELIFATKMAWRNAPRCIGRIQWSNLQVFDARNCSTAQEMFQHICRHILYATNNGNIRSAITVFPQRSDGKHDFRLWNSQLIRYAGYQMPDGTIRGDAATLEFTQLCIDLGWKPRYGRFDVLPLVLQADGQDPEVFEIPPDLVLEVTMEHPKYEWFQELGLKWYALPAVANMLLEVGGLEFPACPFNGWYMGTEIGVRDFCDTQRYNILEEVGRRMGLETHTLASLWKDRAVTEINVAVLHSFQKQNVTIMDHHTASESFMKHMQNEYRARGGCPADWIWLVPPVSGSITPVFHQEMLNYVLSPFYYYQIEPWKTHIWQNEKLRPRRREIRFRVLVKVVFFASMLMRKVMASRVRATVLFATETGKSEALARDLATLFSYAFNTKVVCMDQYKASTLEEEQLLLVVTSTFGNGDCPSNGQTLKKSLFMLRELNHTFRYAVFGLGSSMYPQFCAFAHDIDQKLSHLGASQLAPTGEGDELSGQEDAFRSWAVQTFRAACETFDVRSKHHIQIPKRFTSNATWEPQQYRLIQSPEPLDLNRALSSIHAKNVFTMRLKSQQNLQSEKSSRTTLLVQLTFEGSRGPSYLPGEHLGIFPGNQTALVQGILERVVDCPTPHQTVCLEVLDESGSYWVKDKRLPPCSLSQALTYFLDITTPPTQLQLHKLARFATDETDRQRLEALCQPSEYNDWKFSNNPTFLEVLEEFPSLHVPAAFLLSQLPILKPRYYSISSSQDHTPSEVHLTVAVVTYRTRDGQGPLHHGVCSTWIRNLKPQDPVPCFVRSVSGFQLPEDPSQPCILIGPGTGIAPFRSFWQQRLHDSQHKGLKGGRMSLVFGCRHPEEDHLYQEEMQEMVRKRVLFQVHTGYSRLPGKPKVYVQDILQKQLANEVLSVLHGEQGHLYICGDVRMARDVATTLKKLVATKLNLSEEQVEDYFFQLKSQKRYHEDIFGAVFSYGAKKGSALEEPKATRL
Description: Inhibition of mouse recombinant iNOS expressed in Escherichia coli using L-arginine as substrate up to 180 seconds by hemoglobin capture assay

Ki (Nitric oxide synthase 3): 5.26 µM | Ki [1]: 2.93 µM
SMILES: Cc1cc(N)nc(COCCOCc2cc(C)cc(N)n2)c1
